{
  "source": "patent US6518005B2",
  "about": "“Silver halide multilayer color photographic material” (Ferrania, S.p.A., priority 2000, dated 2003)",
  "key": {"[1]": {"assay": "Absorption of methanol solutions of the dyes (λmax and density at 400, 450, 500 nm)", "format": "physicochemical", "settings": "for D400: density measured at 400 nm; for D400 / D450 / D500: methanol solution with density 0.6 at λmax; for D450: density measured at 450 nm; for D500: density measured at 500 nm; for λmax (nm): methanol solution, density 0.6 at λmax; for spectral region absorbed (in words): methanol solutions, from the data of Table 1"}, "[2]": {"assay": "Solubility in tricresylphosphate and crystallization tendency on cooling", "format": "physicochemical", "settings": "for Solubility: in tricresylphosphate, under stirring at 60° C.; for Not-to-Crystallize Tendency: tricresylphosphate solution cooled at room temperature", "description": "The compounds shown in Table 2 were added with a quantity of tricresylphosphate under stirring at 60° C. up to obtain a limpid solution. The samples were then cooled at room temperature and the crystallization tendency thereof was evaluated."}},
  "data": [
    {"smiles": "CCCCS(=O)(=O)Nc1ccc(C2=NOC(=O)/C2=C\\C2CN(CCC(=O)OCC)c3ccccc32)cc1", "note": "(single isomer, unassigned) [B]", "values": [
      {"measurement": "D400", "setting": "[1]", "value": 0.09},
      {"measurement": "D450", "setting": "[1]", "value": 0.53},
      {"measurement": "D500", "setting": "[1]", "value": 0.10},
      {"measurement": "λmax (nm)", "setting": "[1]", "value": 463, "unit": "nm"},
      {"measurement": "spectral region absorbed (in words)", "setting": "[1]", "value": "mainly absorb in the blue region, but that the green region (500-600 nm) is also interested"}
    ]},
    {"smiles": "CCCCS(=O)(=O)Nc1ccc(C2=NOC(=O)/C2=C\\C2CN(CCC(=O)OCC)c3ccccc32)cc1", "note": "(centres unmarked) [C]", "values": [
      {"measurement": "D400", "setting": "[1]", "value": 0.45},
      {"measurement": "D450", "setting": "[1]", "value": 0.03},
      {"measurement": "D500", "setting": "[1]", "value": 0.00},
      {"measurement": "λmax (nm)", "setting": "[1]", "value": 377, "unit": "nm"},
      {"measurement": "spectral region absorbed (in words)", "setting": "[1]; listed as Sample 11", "value": "mainly absorb in the ultraviolet"}
    ]},
    {"smiles": "CCCCS(=O)(=O)Nc1ccc(C2=NOC(=O)/C2=C\\C2CN(CCC(=O)OCC)c3ccccc32)cc1", "note": "(centres unmarked) [Compound G]", "values": [
      {"measurement": "D400", "setting": "[1]", "value": 0.27},
      {"measurement": "D450", "setting": "[1]", "value": 0.55},
      {"measurement": "D500", "setting": "[1]", "value": 0.00},
      {"measurement": "λmax (nm)", "setting": "[1]", "value": 438, "unit": "nm"},
      {"measurement": "Solubility", "setting": "[2]", "value": "good"},
      {"measurement": "Not-to-Crystallize Tendency", "setting": "[2]", "value": "not good"}
    ]},
    {"smiles": "C=CCn1cccc1/C=C1\\C(=O)ON=C1c1ccc(NS(=O)(=O)CCCC)cc1", "note": "[Compound I-2]", "values": [
      {"measurement": "D400", "setting": "[1]", "value": 0.41},
      {"measurement": "D450", "setting": "[1]", "value": 0.24},
      {"measurement": "D500", "setting": "[1]", "value": 0.00},
      {"measurement": "λmax (nm)", "setting": "[1]", "value": 421, "unit": "nm"}
    ]},
    {"smiles": "COc1ccc(C2=NOC(=O)/C2=C\\c2ccc[nH]2)cc1", "note": "[Compound I-3]", "values": [
      {"measurement": "D400", "setting": "[1]", "value": 0.48},
      {"measurement": "D450", "setting": "[1]", "value": 0.08},
      {"measurement": "D500", "setting": "[1]", "value": 0.00},
      {"measurement": "λmax (nm)", "setting": "[1]", "value": 418, "unit": "nm"}
    ]},
    {"smiles": "CCOC(=O)CCn1cccc1/C=C1\\C(=O)ON=C1c1ccc(OC)cc1", "note": "[Compound I-4]", "values": [
      {"measurement": "D400", "setting": "[1]", "value": 0.44},
      {"measurement": "D450", "setting": "[1]", "value": 0.22},
      {"measurement": "D500", "setting": "[1]", "value": 0.00},
      {"measurement": "λmax (nm)", "setting": "[1]", "value": 420, "unit": "nm"}
    ]},
    {"smiles": "CCOC(=O)Cn1cccc1/C=C1\\C(=O)ON=C1c1ccc(OC)cc1", "note": "[Compound I-5]", "values": [
      {"measurement": "D400", "setting": "[1]", "value": 0.47},
      {"measurement": "D450", "setting": "[1]", "value": 0.21},
      {"measurement": "D500", "setting": "[1]", "value": 0.00},
      {"measurement": "λmax (nm)", "setting": "[1]", "value": 419, "unit": "nm"}
    ]},
    {"smiles": "C=CCn1cccc1/C=C1\\C(=O)ON=C1C(C)(C)C", "note": "[Compound I-6]", "values": [
      {"measurement": "D400", "setting": "[1]", "value": 0.52},
      {"measurement": "D450", "setting": "[1]", "value": 0.17},
      {"measurement": "D500", "setting": "[1]", "value": 0.00},
      {"measurement": "λmax (nm)", "setting": "[1]", "value": 415, "unit": "nm"}
    ]},
    {"smiles": "CCCCS(=O)(=O)Nc1ccc(C2=NOC(=O)/C2=C\\c2cccn2C(CC)C(=O)OCCOCC)cc1", "note": "(centres unmarked) [Compound I-7]", "values": [
      {"measurement": "D400", "setting": "[1]", "value": 0.42},
      {"measurement": "D450", "setting": "[1]", "value": 0.03},
      {"measurement": "D500", "setting": "[1]", "value": 0.00},
      {"measurement": "λmax (nm)", "setting": "[1]", "value": 423, "unit": "nm"},
      {"measurement": "Not-to-Crystallize Tendency", "setting": "[2]", "value": "good"},
      {"measurement": "Not-to-Crystallize Tendency", "setting": "[2]; listed as Sample 7", "value": "do not exhibit any tendency to crystallize"}
    ]},
    {"smiles": "CCCCS(=O)(=O)Nc1ccc(C2=NOC(=O)/C2=C\\C2CN(CCC(=O)OCC)c3ccccc32)cc1", "note": "(centres unmarked) [D]", "values": [
      {"measurement": "D400", "setting": "[1]", "value": 0.35},
      {"measurement": "D450", "setting": "[1]", "value": 0.00},
      {"measurement": "D500", "setting": "[1]", "value": 0.00},
      {"measurement": "λmax (nm)", "setting": "[1]", "value": 374, "unit": "nm"},
      {"measurement": "spectral region absorbed (in words)", "setting": "[1]; listed as Sample 12", "value": "mainly absorb in the ultraviolet"}
    ]},
    {"smiles": "CCCCS(=O)(=O)Nc1ccc(C2=NOC(=O)/C2=C\\C2CN(CCC(=O)OCC)c3ccccc32)cc1", "note": "(centres unmarked) [E]", "values": [
      {"measurement": "D400", "setting": "[1]", "value": 0.26},
      {"measurement": "D450", "setting": "[1]", "value": 0.50},
      {"measurement": "D500", "setting": "[1]", "value": 0.00},
      {"measurement": "λmax (nm)", "setting": "[1]", "value": 437, "unit": "nm"},
      {"measurement": "Solubility", "setting": "[2]", "value": "good"},
      {"measurement": "Not-to-Crystallize Tendency", "setting": "[2]", "value": "not good"}
    ]},
    {"smiles": "CCCCS(=O)(=O)Nc1ccc(C2=NOC(=O)/C2=C\\C2CN(CCC(=O)OCC)c3ccccc32)cc1", "note": "(centres unmarked) [F]", "values": [
      {"measurement": "D400", "setting": "[1]", "value": 0.28},
      {"measurement": "D450", "setting": "[1]", "value": 0.54},
      {"measurement": "D500", "setting": "[1]", "value": 0.00},
      {"measurement": "λmax (nm)", "setting": "[1]", "value": 437, "unit": "nm"},
      {"measurement": "Solubility", "setting": "[2]", "value": "good"},
      {"measurement": "Not-to-Crystallize Tendency", "setting": "[2]", "value": "not good"}
    ]}
  ]
}
